Values of other authors in US20160193372A1, “METHODS OF IDENTIFYING SURROGATE IMAGING AGENTS FOR ALPHA EMITTER RADIOPHARMACEUTICALS AND THEIR USE IN TREATMENT OF DISEASE” (THE JOHNS HOPKINS UNIVERSITY, priority 2012, published 2016).

System: mineralizing or proliferating bone matrix
Conditions: very high administered activities

^153Sm-EDTMP
pain effect in OS: pain palliation | therapeutic efficacy in OS: minimal therapeutic efficacy
